In patent US8455530B2, “Crystalline form of an alkoxyimidazol-1-ylmethyl biphenyl carboxylic acid” (Theravance, Inc., priority 2008, dated 2013):
“Also recorded” adds a separate entry of the source. Counter-ions that a name gives are not always drawn.

Columns and labels:
human AT1 receptor = target: T1, human AT1 receptor (Homo sapiens, UniProt P30556); assay: AT1 radioligand binding assay ([Eu]AngII displacement); details: [Eu]AngII at 2 nM, membranes of CHO-K1 cells expressing human AT1; read-out: pKi at the AT1 receptor (converted)
T1 construct: expressed in transfected cells; membrane preparation
T1 sequence (P30556 1-359): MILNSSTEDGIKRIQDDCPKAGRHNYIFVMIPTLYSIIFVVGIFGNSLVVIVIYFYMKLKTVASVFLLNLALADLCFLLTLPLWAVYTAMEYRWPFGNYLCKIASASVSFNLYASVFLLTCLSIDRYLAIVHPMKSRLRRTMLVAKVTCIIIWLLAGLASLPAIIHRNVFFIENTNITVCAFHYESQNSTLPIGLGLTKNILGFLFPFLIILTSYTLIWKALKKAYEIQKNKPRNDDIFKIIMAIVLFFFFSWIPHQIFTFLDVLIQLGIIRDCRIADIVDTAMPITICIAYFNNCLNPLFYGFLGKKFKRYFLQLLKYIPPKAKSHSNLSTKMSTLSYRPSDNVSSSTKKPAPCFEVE
Experimental: These in vitro assays were used to assess the ability of test compounds to bind to the AT1 and the AT2 receptors.
Membrane Preparation From Cells Expressing Human AT1 or AT2 Receptors
Chinese hamster ovary (CHO-K1) derived cell lines stably expressing the cloned human AT1 or AT2 receptors, respectively, were grown in HAM's-F12 medium supplemented with 10% fetal bovine serum, 10 μg/ml penicillin/streptomycin, and 500 μg/ml geneticin in a 5% CO2 humidified incubator at 37° C. AT2 receptor expressing cells were grown in the additional presence of 100 nM PD123,319 (AT2 antagonist). When cultures reached 80-95% confluence, the cells were washed thoroughly in PBS and lifted with 5 mM EDTA. Cells were pelleted by centrifugation and snap frozen in MeOH-dry ice and stored at −80° C. until further use.
For membrane preparation, cell pellets were resuspended in lysis buffer (25 mM Tris/HCl pH 7.5 at 4° C., 1 mM EDTA, and one tablet of Complete Protease Inhibitor Cocktail Tablets with 2 mM EDTA per 50 mL buffer (Roche cat.#1697498, Roche Molecular Biochemicals, Indianapolis, Ind.)) and homogenized using a tight-fitting Dounce glass homogenizer (10 strokes) on ice. The homogenate was centrifuged at 1000×g, the supernatant was collected and centrifuged at 20,000×g. […] Protein concentration of the membrane suspension was determined by the method described in Bradford (1976) Anal Biochem. 72:248-54. […]

[1] = Thermal stability (heating at 60° C.); assay type: physicochemical
Experimental: A sample of the crystalline form prepared as in Example 6 was heated at 60° C. for 5 days. The sample lost only 2% of its purity, thus the crystalline compound of the invention has excellent thermal stability.

[2] = Solid state stability assessment (storage, HPLC purity); assay type: physicochemical; details: for change in chemical purity after 28 days of storage at 40° C.: HPLC
Experimental: Samples of the crystalline freebase prepared as in Example 7, about 100 mg each, were stored in multiple vials at 5° C. (closed container), 25° C. (closed container), and at 40° C. (closed container). At specific intervals, the entire contents of a representative vial was analyzed by the following HPLC method:
Column: Agilent Zorbox SB-C18, 4.6×250 mm, 5 μm (Part No. 880975-902). Mobile Phase A: 80% H2O, 20% MeCN, 0.01% TFA. Mobile Phase B: 80% MeCN, 20% H2O, 0.01% TFA. Flow rate: 1 mL/min. Injection Volume: 20 μL. Detector: 250 nm.
The purity of the samples was determined by HPLC area percentage (% AUC).

[3] = as above; assay type: physicochemical; details: for purity at time 0: HPLC area percentage
[4] = Dynamic moisture sorption (DMS) assessment; assay type: physicochemical
Experimental: A dynamic moisture sorption (DMS) assessment (also known as a moisture sorption-desorption profile) was performed for a sample of the crystalline form of Example 2 using a VTI atmospheric microbalance, SGA-100 system (VTI Corp., Hialeah, Fla. 33016). A sample size of approximately 4.27 mg was used and the humidity was set at the ambient value at the start of the analysis. The DMS analysis consisted of a scan rate of 5% RH/step over the full humidity range of 2% relative humidity (RH) to 90% RH. The DMS run was performed isothermally at 25° C.

[5] = Differential scanning calorimetry (thermal stability); assay type: physicochemical; details: 10° C./min from 22° C. to 250° C.; listed as crystalline compound of the invention
Experimental: Differential scanning calorimetry (DSC) was performed using a TA Instruments Model Q-100 module with a Thermal Analyst controller. Data were collected and analyzed using TA Instruments Thermal Solutions software. A 1.64 mg sample of the crystalline form of Example 2 was accurately weighed into a covered aluminum pan. After a 5 minute isothermal equilibration period at 22° C., the sample was heated using a linear heating ramp of 10° C./min from 22° C. to 250° C.

[6] = Micronization with a jet mill, particle size distribution; assay type: physicochemical
Text: A sample of the crystalline freebase prepared as in Example 7 was micronized with a jet mill to give a free-flowing white powder. No issues were encountered during the micronization process.

[7] = closed container, listed as amorphous freebase
[8] = closed container, listed as crystalline freebase
[9] = all conditions: 5° C., 25° C. and 40° C., closed container

CCOc1nc(CC)c(CNC(=O)[C@@H](S)CC(C)C)n1Cc1ccc(-c2ccccc2C(=O)O)cc1F [Example 1, 4′-{2-Ethoxy-4-ethyl-5-[((S)-2-mercapto-4-methylpentanoylamino)methyl]imidazol-1-ylmethyl}-3′-fluorobiphenyl-2-carboxylic Acid]
Ki (human AT1 receptor): < 100 nM
loss of purity ([1]; heated at 60° C. for 1 day): about 50%
purity after 14 days at 40° C. [2, 7]: 82.4 % AUC
change in chemical purity after 28 days of storage at 40° C. ([2]; 28 days at 40° C., listed as amorphous freebase): decline in purity
purity after 7 days at 40° C. [3, 7]: 86.8 % AUC
purity at time 0 ([3]; listed as amorphous freebase): 97.5 % AUC

CCOc1nc(CC)c(CNC(=O)[C@@H](S)CC(C)C)n1Cc1ccc(-c2ccccc2C(=O)O)cc1F [Example 2, 4′-{2-Ethoxy-4-ethyl-5-[((S)-2-mercapto-4-methylpentanoylamino)methyl]imidazol-1-ylmethyl}-3′-fluorobiphenyl-2-carboxylic Acid]
weight gain in the humidity range of 40-75% RH ([4]; unmicronized): less than 1%
weight gain when exposed to up to 75% relative humidity ([4]; up to 75% RH, 25° C.): less than 1%
thermal decomposition (DSC thermograph) [5]: no significant thermal decomposition below about 150 °C

CCOc1nc(CC)c(CNC(=O)[C@@H](S)CC(C)C)n1Cc1ccc(-c2ccccc2C(=O)O)cc1F [Example 6, 4′-{2-Ethoxy-4-ethyl-5-[((S)-2-mercapto-4-methylpentanoylamino)methyl]imidazol-1-ylmethyl}-3′-fluorobiphenyl-2-carboxylic Acid]
loss of purity ([1]; heated at 60° C. for 5 days): 2%

CCOc1nc(CC)c(CNC(=O)[C@@H](S)CC(C)C)n1Cc1ccc(-c2ccccc2C(=O)O)cc1F [Example 7, 4′-{2-Ethoxy-4-ethyl-5-[((S)-2-mercapto-4-methylpentanoylamino)methyl]imidazol-1-ylmethyl}-3′-fluorobiphenyl-2-carboxylic Acid]
weight gain in the humidity range of 40-75% RH ([4]; micronized material): 0.7%
purity after 14 days at 40° C. [2, 8]: 98.3 % AUC
change in chemical purity after 28 days of storage at 40° C. ([2]; 28 days at 40° C., listed as crystalline freebase): no detectable change in chemical purity; also recorded: minimal chemical degradation
change in chemical purity after 28 days of storage [2, 9]: no detectable change in chemical purity
particle size D (v, 0.1) ([6]; Post-Micronization): 0.79 μm
particle size D (v, 0.5) ([6]; Post-Micronization): 2.59 μm
particle size D (v, 0.9) ([6]; Post-Micronization): 7.07 μm
particle size D (v, 0.1) ([6]; Pre-Micronization): 1.73 μm
particle size D (v, 0.5) ([6]; Pre-Micronization): 11.32 μm
particle size D (v, 0.9) ([6]; Pre-Micronization): 50.73 μm
purity after 7 days at 40° C. [3, 8]: 98.4 % AUC
purity after 28 days at 40° C. ([3]; 28 days at 40° C., closed container, listed as crystalline freebase): 98.4 % AUC
purity at time 0 ([3]; listed as crystalline freebase): 98.5 % AUC
change in the appearance of the material after 28 days of storage [3, 9]: no observable change in the appearance

CCOc1nc(CC)c(CNC(=O)[C@@H](S)CC(C)C)n1Cc1ccc(-c2ccccc2C(=O)O)cc1F [amorphous TFA salt, 4′-{2-ethoxy-4-ethyl-5-[((S)-2-mercapto-4-methylpentanoyl-amino)methyl]imidazol-1-ylmethyl}-3′-fluorobiphenyl-2-carboxylic acid]
purity after 14 days at 40° C. ([2]; closed container): 62.2 % AUC
change in chemical purity after 28 days of storage at 40° C. ([2]; 28 days at 40° C.): decline in purity
purity after 28 days at 40° C. ([2]; 28 days at 40° C., closed container): 47.1 % AUC
purity at time 0 ([2]; HPLC area percentage, time 0): 97.7 % AUC
purity after 7 days at 40° C. ([3]; closed container): 73.5 % AUC
